Measurements reported in patent publication US20190029257A1, “APPLICATION FOR HERBICIDE-TOLERANT PROTEIN” (BEIJING DABEINONG TECHNOLOGY GROUP CO., LTD., priority 2016, published 2019).

What was measured:
Format in all cases: in vivo
[1] = tested on: wild-type soybean plants (CK1); assay: Halosulfuron-methyl tolerance of soybean plants (damage degree)
Excerpt: The herbicide tolerance effects of Gm cytoplasmic ALT-1-01 soybean plants, Gm chloroplastic ALT-1-01 soybean plants, Gm cytoplasmic ALT-2-01 soybean plants, Gm chloroplastic ALT-2-01 soybean plants, Gm cytoplasmic ALT-3-01 soybean plants, Gm chloroplastic ALT-3-01 soybean plants and wild-type soybean plants on halosulfuron-methyl were detected (at seedling stage), respectively.
Gm cytoplasmic ALT-1-01 soybean plants, Gm chloroplastic ALT-1-01 soybean plants, Gm cytoplasmic ALT-2-01 soybean plants, Gm chloroplastic ALT-2-01 soybean plants, Gm cytoplasmic ALT-3-01 soybean plants, Gm chloroplastic ALT-3-01 soybean plants and wild-type soybean plants were respectively taken and sprayed with halosulfuron-methyl ([…]) and a blank solvent (water). The damage degree caused by the herbicide was measured for each plant according to the leaf curl degree and the growth point damage degree 3 days after spraying (3 DAT), 7 days after spraying (7 DAT), 14 days after spraying (14 DAT) and 21 days after spraying (21 DAT), respectively: considering conditions of leaves being flat as the untreated plants and growth points being intact as having a damage degree of 0%; considering conditions of veins being locally browned, new leaves being malformed and plant growth being slow as having a damage degree of 50%; and considering conditions of veins being purple to whole plant being dead and growth points being browned and dry as having a damage degree of 100%. There were 2 strains in Gm cytoplasmic ALT-1-01 soybean plants in total (S1 and S2), 2 strains in Gm chloroplastic ALT-1-01 soybean plants in total (S3 and S4), 2 strains in Gm cytoplasmic ALT-2-01 soybean plants in total (S5 and S6), 2 strains in Gm chloroplastic ALT-2-01 soybean plants in total (S7 and S8), 2 strains in Gm cytoplasmic ALT-3-01 soybean plants in total (S9 and S10), 2 strains in Gm chloroplastic ALT-3-01 soybean plants in total (S11 and S12), and 1 strain in wild-type soybean plants (CK1) in total; and 10-15 plants were selected from each strain and tested.

[2] = tested on: Zm chloroplastic ALT-1-02 maize plants; assay: Halosulfuron-methyl tolerance of maize plants (damage degree); conditions: 36 g ai/ha (4x Hal.); for Average damage % 3 DAT: 3 days after spraying; for Average damage % 7 DAT: 7 days after spraying; for Average damage % 14 DAT: 14 days after spraying; for Average damage % 21 DAT: 21 days after spraying
Excerpt: (§1) The herbicide tolerance effects of Zm cytoplasmic ALT-1-02 maize plants, Zm chloroplastic ALT-1-02 maize plants, Zm cytoplasmic ALT-2-02 maize plants, Zm chloroplastic ALT-2-02 maize plants, Zm cytoplasmic ALT-3-02 maize plants, Zm chloroplastic ALT-3-02 maize plants and wild-type maize plants on halosulfuron-methyl were detected (at V3-V4 stage), respectively.
(§2) Zm cytoplasmic ALT-1-02 maize plants, Zm chloroplastic ALT-1-02 maize plants, Zm cytoplasmic ALT-2-02 maize plants, Zm chloroplastic ALT-2-02 maize plants, Zm cytoplasmic ALT-3-02 maize plants, Zm chloroplastic ALT-3-02 maize plants and wild-type maize plants were respectively taken and sprayed with halosulfuron-methyl (36 g ai/ha, 4-fold field concentration) and a blank solvent (water). The damage degree caused by the herbicide was measured for each plant according to the plant growth status 3 days after spraying (3 DAT), 7 days after spraying (7 DAT), 14 days after spraying (14 DAT) and 21 days after spraying (21 DAT), respectively: considering a growth status equivalent to that of the untreated plants as having a damage degree of 0%; considering conditions of leaves being partially chlorotic and yellow but substantially not affecting the plant normal growth as having a damage degree of 50%; and considering the whole plant being purple and dying as having a damage degree of 100%. There were 2 strains in Zm cytoplasmic ALT-1-02 maize plants in total (S13 and S14), 2 strains in Zm chloroplastic ALT-1-02 maize plants in total (S15 and S16), 2 strains in Zm cytoplasmic ALT-2-02 maize plants in total (S17 and S18), 2 strains in Zm chloroplastic ALT-2-02 maize plants in total (S19 and S20), 2 strains in Zm cytoplasmic ALT-3-02 maize plants in total (S21 and S22), 2 strains in Zm chloroplastic ALT-3-02 maize plants in total (S23 and S24), and 1 strain in wild- type maize plants (CK2) in total; and 10-15 plants were selected from each strain and tested.

[3] = tested on: Zm chloroplastic ALT-2-02 maize plants; assay: as above; conditions: 36 g ai/ha (4x Hal.); for Average damage % 3 DAT: 3 days after spraying; for Average damage % 7 DAT: 7 days after spraying; for Average damage % 14 DAT: 14 days after spraying; for Average damage % 21 DAT: 21 days after spraying
Excerpt: as §1, §2

[4] = tested on: Zm chloroplastic ALT-3-02 maize plants; assay: as above; conditions: 36 g ai/ha (4x Hal.); for Average damage % 3 DAT: 3 days after spraying; for Average damage % 7 DAT: 7 days after spraying; for Average damage % 14 DAT: 14 days after spraying; for Average damage % 21 DAT: 21 days after spraying
Excerpt: as §1, §2

[5] = tested on: Zm cytoplasmic ALT-1-02 maize plants; assay: as above; conditions: 36 g ai/ha (4x Hal.); for Average damage % 3 DAT: 3 days after spraying; for Average damage % 7 DAT: 7 days after spraying; for Average damage % 14 DAT: 14 days after spraying; for Average damage % 21 DAT: 21 days after spraying
Excerpt: as §1, §2

[6] = tested on: Zm cytoplasmic ALT-2-02 maize plants; assay: as above; conditions: 36 g ai/ha (4x Hal.); for Average damage % 3 DAT: 3 days after spraying; for Average damage % 7 DAT: 7 days after spraying; for Average damage % 14 DAT: 14 days after spraying; for Average damage % 21 DAT: 21 days after spraying
Excerpt: as §1, §2

[7] = tested on: Zm cytoplasmic ALT-3-02 maize plants; assay: as above; conditions: 36 g ai/ha (4x Hal.); for Average damage % 3 DAT: 3 days after spraying; for Average damage % 7 DAT: 7 days after spraying; for Average damage % 14 DAT: 14 days after spraying; for Average damage % 21 DAT: 21 days after spraying
Excerpt: as §1, §2

Structure (SMILES): COC(=O)c1c(Cl)nn(C)c1S(=O)(=O)NC(=O)Nc1nc(OC)cc(OC)n1 [halosulfuron-methyl, 3-chlorine-5-(4,6-dimethoxypyrimidine-2-aminocarbonylaminosulphonyl)-1-methylpyrazole-4-carboxylic acid methyl ester]
- tolerance of the plants to the herbicide ([1]; 34 g ai/ha, summary of Table 3): not tolerant
- Average damage % 3 DAT ([1]; strain CK1, 34 g ai/ha (Hal.), 3 days after spraying): 51%
- Average damage % 7 DAT ([1]; strain CK1, 34 g ai/ha (Hal.), 7 days after spraying): 87%
- Average damage % 14 DAT ([1]; strain CK1, 34 g ai/ha (Hal.), 14 days after spraying): 100%
- Average damage % 21 DAT ([1]; strain CK1, 34 g ai/ha (Hal.), 21 days after spraying): 100%
- Average damage % 3 DAT ([2]; strain S15): 0%
- Average damage % 7 DAT ([2]; strain S15): 0%
- Average damage % 14 DAT ([2]; strain S15): 0%
- Average damage % 21 DAT ([2]; strain S15): 0%
- Average damage % 3 DAT ([2]; strain S16): 0%
- Average damage % 7 DAT ([2]; strain S16): 0%
- Average damage % 14 DAT ([2]; strain S16): 0%
- Average damage % 21 DAT ([2]; strain S16): 0%
- Average damage % 3 DAT ([3]; strain S19): 0%
- Average damage % 7 DAT ([3]; strain S19): 0%
- Average damage % 14 DAT ([3]; strain S19): 0%
- Average damage % 21 DAT ([3]; strain S19): 0%
- Average damage % 3 DAT ([3]; strain S20): 0%
- Average damage % 7 DAT ([3]; strain S20): 0%
- Average damage % 14 DAT ([3]; strain S20): 0%
- Average damage % 21 DAT ([3]; strain S20): 0%
- Average damage % 3 DAT ([4]; strain S23): 0%
- Average damage % 7 DAT ([4]; strain S23): 0%
- Average damage % 14 DAT ([4]; strain S23): 0%
- Average damage % 21 DAT ([4]; strain S23): 0%
- Average damage % 3 DAT ([4]; strain S24): 0%
- Average damage % 7 DAT ([4]; strain S24): 0%
- Average damage % 14 DAT ([4]; strain S24): 0%
- Average damage % 21 DAT ([4]; strain S24): 0%
- Average damage % 3 DAT ([5]; strain S13): 0%
- Average damage % 7 DAT ([5]; strain S13): 2%
- Average damage % 14 DAT ([5]; strain S13): 0%
- Average damage % 21 DAT ([5]; strain S13): 0%
- Average damage % 3 DAT ([5]; strain S14): 0%
- Average damage % 7 DAT ([5]; strain S14): 3%
- Average damage % 14 DAT ([5]; strain S14): 0%
- Average damage % 21 DAT ([5]; strain S14): 0%
- Average damage % 3 DAT ([6]; strain S17): 0%
- Average damage % 7 DAT ([6]; strain S17): 3%
- Average damage % 14 DAT ([6]; strain S17): 0%
- Average damage % 21 DAT ([6]; strain S17): 0%
- Average damage % 3 DAT ([6]; strain S18): 0%
- Average damage % 7 DAT ([6]; strain S18): 2%
- Average damage % 14 DAT ([6]; strain S18): 0%
- Average damage % 21 DAT ([6]; strain S18): 0%
- Average damage % 3 DAT ([7]; strain S21): 0%
- Average damage % 7 DAT ([7]; strain S21): 4%
- Average damage % 14 DAT ([7]; strain S21): 0%
- Average damage % 21 DAT ([7]; strain S21): 0%
- Average damage % 3 DAT ([7]; strain S22): 0%
- Average damage % 7 DAT ([7]; strain S22): 5%
- Average damage % 14 DAT ([7]; strain S22): 0%
- Average damage % 21 DAT ([7]; strain S22): 0%
